Results on five molecules are retold here after patent publication US20260176320A1, “MODULATORS OF G-PROTEIN COUPLED RECEPTORS” (priority 2018, published 2026).

Holding throughout (assay type): cell-based
For assay [1], the target named is T1, GLP-1R (Homo sapiens, UniProt P43220). The assay is described as follows: HitHunter cAMP assay (GLP-1R). To be noted: cAMP; for Emax: read-out: (Emax) GLP-1R. Summed up:
(§1)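 Suspension cells (10,000/well) in HBSS with 10 mM HEPES, 625 μM IBMX, 0.2% BSA exposed to 22-point 2-fold agonist series in duplicate for 30 min at room temperature. cAMP measured by antibody immunocompetition with overnight development, luminescence read-out.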

For assay [2], the target named is T2, GIP-R (Homo sapiens, UniProt P48546).
T2 sequence (P48546 22-466): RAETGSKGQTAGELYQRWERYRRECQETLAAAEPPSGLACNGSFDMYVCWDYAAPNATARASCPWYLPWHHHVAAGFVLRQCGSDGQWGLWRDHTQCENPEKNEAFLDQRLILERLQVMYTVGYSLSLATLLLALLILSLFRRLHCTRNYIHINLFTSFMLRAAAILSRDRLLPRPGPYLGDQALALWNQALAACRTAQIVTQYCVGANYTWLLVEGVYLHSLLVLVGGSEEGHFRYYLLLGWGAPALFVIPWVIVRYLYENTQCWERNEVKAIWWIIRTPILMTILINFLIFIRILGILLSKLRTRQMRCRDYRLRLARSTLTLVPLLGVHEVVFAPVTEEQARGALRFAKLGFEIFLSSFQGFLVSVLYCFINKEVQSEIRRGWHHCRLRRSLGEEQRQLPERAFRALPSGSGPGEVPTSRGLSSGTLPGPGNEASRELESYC
Kind of assay: HitHunter cAMP assay (GIP-R). To be noted: cAMP; for Emax: read-out: (Emax) GIP-R. A digest of the protocol:
as §1

In assay [3] the target is T1, GLP-1R. Kind of assay: PathHunter β-arrestin assay. Summed up:
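Cells (5,000/well) plated overnight, then exposed to a 22-point 2-fold agonist dilution series in medium with 0.2% BSA for 90 min at 37 °C, 5% CO2. PathHunter detection reagent added; after 3 h at room temperature in the dark, luminescence read.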

Like-named read-outs stand apart in the source and are kept apart here.

T1 sequence (P43220 24-463): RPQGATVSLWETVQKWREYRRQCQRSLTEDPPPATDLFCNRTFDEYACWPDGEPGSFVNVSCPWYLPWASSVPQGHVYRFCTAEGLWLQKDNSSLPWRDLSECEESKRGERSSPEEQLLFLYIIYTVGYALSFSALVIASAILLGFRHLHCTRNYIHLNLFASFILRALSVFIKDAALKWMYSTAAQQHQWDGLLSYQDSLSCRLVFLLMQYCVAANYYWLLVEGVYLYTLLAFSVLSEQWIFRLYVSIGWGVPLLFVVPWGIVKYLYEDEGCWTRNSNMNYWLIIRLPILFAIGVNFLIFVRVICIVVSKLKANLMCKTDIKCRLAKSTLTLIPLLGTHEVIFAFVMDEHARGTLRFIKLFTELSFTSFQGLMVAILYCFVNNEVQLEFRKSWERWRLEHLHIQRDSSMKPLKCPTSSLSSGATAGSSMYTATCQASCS

On to `CCCCCCCCCCCCCCCC(=O)N[C@@H](CCC(=O)NCCCC[C@H](NC(=O)[C@H](CO)NC(=O)[C@@H]1CCCN1C(=O)[C@@H]1CCCN1C(=O)[C@@H]1CCCN1C(=O)[C@H](C)NC(=O)CNC(=O)[C@H](CO)NC(=O)[C@H](CO)NC(=O)[C@@H]1CCCN1C(=O)CNC(=O)CNC(=O)[C@H](C)NC(=O)[C@H](CC(C)C)NC(=O)[C@H](CC(C)C)NC(=O)[C@H](Cc1c[nH]c2ccccc12)NC(=O)[C@H](CC(N)=O)NC(=O)[C@@H](NC(=O)[C@H](Cc1ccccc1)NC(=O)[C@H](CCC(=O)O)NC(=O)C(C)(C)NC(=O)[C@H](C)NC(=O)[C@H](C)NC(=O)[C@H](CCC(N)=O)NC(=O)[C@H](CCCCN)NC(=O)[C@H](CC(=O)O)NC(=O)[C@H](CC(C)C)NC(=O)[C@H](Cc1ccc(O)cc1)NC(=O)[C@@H](NC(=O)[C@H](CO)NC(=O)[C@H](Cc1ccc(O)cc1)NC(=O)[C@H](CC(=O)O)NC(=O)[C@H](CO)NC(=O)[C@@H](NC(=O)[C@H](Cc1ccccc1)NC(=O)[C@@H](NC(=O)CNC(=O)[C@H](CCC(=O)O)NC(=O)CSCC(=O)NCCN1C(=O)CC[C@@H](C)C1=O)[C@@H](C)O)[C@@H](C)O)[C@@H](C)CC)C(C)C)C(N)=O)C(=O)O` [Compound 85], for which the EC50 was 1 to 10 nM in assay [1] (EC50 GLP-1R/nM, Table 3); 1 to 10 nM in assay [1] (EC50 GLP-1R/nM, Table 3A); 0.1 to 1 nM in assay [2] (EC50 GIP-R/nM, Table 3); 0.1 to 1 nM in assay [2] (EC50 GIP-R/nM, Table 3A); > 1000 nM in assay [3]. The maximum response (Emax) was 103% in assay [1] (Table 3), 103% in assay [1] (Table 3A), 83% in assay [2] (Table 3) and 83% in assay [2] (Table 3A).
As to `CCCCCCCCCCCCCCCC(=O)N[C@@H](CCC(=O)NCCCC[C@H](NC(=O)[C@H](CO)NC(=O)[C@@H]1CCCN1C(=O)[C@@H]1CCCN1C(=O)[C@@H]1CCCN1C(=O)[C@H](C)NC(=O)CNC(=O)[C@H](CO)NC(=O)[C@H](CO)NC(=O)[C@@H]1CCCN1C(=O)CNC(=O)CNC(=O)[C@H](C)NC(=O)[C@H](CC(C)C)NC(=O)[C@H](CC(C)C)NC(=O)[C@H](Cc1c[nH]c2ccccc12)NC(=O)[C@H](CC(N)=O)NC(=O)[C@@H](NC(=O)[C@H](Cc1ccccc1)NC(=O)[C@H](CCC(=O)O)NC(=O)C(C)(C)NC(=O)[C@H](C)NC(=O)[C@H](C)NC(=O)[C@H](CCC(N)=O)NC(=O)[C@H](CCCCN)NC(=O)[C@H](CC(=O)O)NC(=O)[C@H](CC(C)C)NC(=O)[C@H](Cc1ccc(O)cc1)NC(=O)[C@@H](NC(=O)[C@H](CO)NC(=O)[C@H](Cc1ccc(O)cc1)NC(=O)[C@H](CC(=O)O)NC(=O)[C@H](CO)NC(=O)[C@@H](NC(=O)[C@H](Cc1ccccc1)NC(=O)[C@@H](NC(=O)CNC(=O)[C@H](CCC(=O)O)NC(=O)CSCC(=O)NCCN1CCCCS1(=O)=O)[C@@H](C)O)[C@@H](C)O)[C@@H](C)CC)C(C)C)C(N)=O)C(=O)O` [Compound 40], the EC50 in assay [1] (EC50 GLP-1R/nM, Table 3) is 0.1 to 1 nM; in assay [1] (EC50 GLP-1R/nM, Table 3A) it was 0.1 to 1 nM; in assay [2] (EC50 GIP-R/nM, Table 3), 1 to 10 nM; in assay [2] (read-out: EC50 GIP-R/nM, Table 3A), 1 to 1000 nM; in assay [3], > 1000 nM. In addition, the maximal effect (Emax) lay in the range of 101 to 105% in assay [1] (Table 3), 101 to 105% in assay [1] (Table 3A), 14 to 34% in assay [2] (Table 3) and 14 to 34% in assay [2] (Table 3A).
As for `CC[C@H](C)[C@H](NC(=O)[C@H](CO)NC(=O)[C@H](Cc1ccc(O)cc1)NC(=O)[C@H](CC(=O)O)NC(=O)[C@H](CO)NC(=O)[C@@H](NC(=O)[C@H](Cc1ccccc1)NC(=O)[C@@H](NC(=O)CNC(=O)[C@H](CCC(=O)O)NC(=O)CSCC(=O)NCCN1C(=O)CCCC1=O)[C@@H](C)O)[C@@H](C)O)C(=O)N[C@@H](Cc1ccc(O)cc1)C(=O)N[C@@H](CC(C)C)C(=O)N[C@@H](CC(=O)O)C(=O)N[C@@H](CCCCN)C(=O)N[C@@H](CCC(N)=O)C(=O)N[C@@H](C)C(=O)N[C@@H](C)C(=O)NC(C)(C)C(=O)N[C@@H](CCC(=O)O)C(=O)N[C@@H](Cc1ccccc1)C(=O)N[C@H](C(=O)N[C@@H](CC(N)=O)C(=O)N[C@@H](Cc1c[nH]c2ccccc12)C(=O)N[C@@H](CC(C)C)C(=O)N[C@@H](CC(C)C)C(=O)N[C@@H](C)C(=O)NCC(=O)NCC(=O)N1CCC[C@H]1C(=O)N[C@@H](CO)C(=O)N[C@@H](CO)C(=O)NCC(=O)N[C@@H](C)C(=O)N1CCC[C@H]1C(=O)N1CCC[C@H]1C(=O)N1CCC[C@H]1C(=O)N[C@@H](CO)C(=O)N[C@@H](CCCCN)C(N)=O)C(C)C` [Compound 138], the EC50 in assay [1] (EC50 GLP-1R/nM, Table 3) is 1 to 10 nM; in assay [1] (EC50 GLP-1R/nM, Table 3A), 1 to 10 nM; in assay [2] (EC50 GIP-R/nM, Table 3), 1 to 10 nM; in assay [2] (EC50 GIP-R/nM, Table 3A), 1 to 10 nM; in assay [3], > 1000 nM. Besides, the Emax in assay [1] (Table 3) was 87%; in assay [1] (Table 3A) it was 87%; in assay [2] (Table 3) it was 81%; in assay [2] (Table 3A), 81%.
Consider `CCCCCCCCCCCCCCCC(=O)N[C@@H](CCC(=O)NCCCC[C@H](NC(=O)[C@H](CO)NC(=O)[C@@H]1CCCN1C(=O)[C@@H]1CCCN1C(=O)[C@@H]1CCCN1C(=O)[C@H](C)NC(=O)CNC(=O)[C@H](CO)NC(=O)[C@H](CO)NC(=O)[C@@H]1CCCN1C(=O)CNC(=O)CNC(=O)[C@H](C)NC(=O)[C@H](CC(C)C)NC(=O)[C@H](CC(C)C)NC(=O)[C@H](Cc1c[nH]c2ccccc12)NC(=O)[C@H](CC(N)=O)NC(=O)[C@@H](NC(=O)[C@H](Cc1ccccc1)NC(=O)[C@H](CCC(=O)O)NC(=O)C(C)(C)NC(=O)[C@H](C)NC(=O)[C@H](C)NC(=O)[C@H](CCC(N)=O)NC(=O)[C@H](CCCCN)NC(=O)[C@H](CC(=O)O)NC(=O)[C@H](CC(C)C)NC(=O)[C@H](Cc1ccc(O)cc1)NC(=O)[C@@H](NC(=O)[C@H](CO)NC(=O)[C@H](Cc1ccc(O)cc1)NC(=O)[C@H](CC(=O)O)NC(=O)[C@H](CO)NC(=O)[C@@H](NC(=O)[C@H](Cc1ccccc1)NC(=O)[C@@H](NC(=O)CNC(=O)[C@H](CCC(=O)O)NC(=O)CSCC(=O)NCCN1CCCN(C)C1=O)[C@@H](C)O)[C@@H](C)O)[C@@H](C)CC)C(C)C)C(N)=O)C(=O)O` [Compound 23], for which the EC50 in assay [1] (EC50 GLP-1R/nM, Table 3) was 1 to 10 nM; in assay [1] (EC50 GLP-1R/nM, Table 3A), 1 to 10 nM; in assay [2] (EC50 GIP-R/nM, Table 3), 1 to 10 nM; in assay [2] (EC50 GIP-R/nM, Table 3A) it was 1 to 10 nM; in assay [3], > 1000 nM. Further, the maximal response (Emax) amounted to 83% in assay [1] (Table 3), 83% in assay [1] (Table 3A), 37% in assay [2] (Table 3) and 37% in assay [2] (Table 3A).
For the molecule `CC[C@H](C)[C@H](NC(=O)[C@H](CO)NC(=O)[C@H](Cc1ccc(O)cc1)NC(=O)[C@H](CC(=O)O)NC(=O)[C@H](CO)NC(=O)[C@@H](NC(=O)[C@H](Cc1ccccc1)NC(=O)[C@@H](NC(=O)CNC(=O)[C@H](CCC(=O)O)NC(=O)CSCC(=O)NCCN1C(=O)c2cccc3cccc(c23)C1=O)[C@@H](C)O)[C@@H](C)O)C(=O)N[C@@H](Cc1ccc(O)cc1)C(=O)N[C@@H](CC(C)C)C(=O)N[C@@H](CC(=O)O)C(=O)N[C@@H](CCCCN)C(=O)N[C@@H](CCC(N)=O)C(=O)N[C@@H](C)C(=O)N[C@@H](C)C(=O)NC(C)(C)C(=O)N[C@@H](CCC(=O)O)C(=O)N[C@@H](Cc1ccccc1)C(=O)N[C@H](C(=O)N[C@@H](CC(N)=O)C(=O)N[C@@H](Cc1c[nH]c2ccccc12)C(=O)N[C@@H](CC(C)C)C(=O)N[C@@H](CC(C)C)C(=O)N[C@@H](C)C(=O)NCC(=O)NCC(=O)N1CCC[C@H]1C(=O)N[C@@H](CO)C(=O)N[C@@H](CO)C(=O)NCC(=O)N[C@@H](C)C(=O)N1CCC[C@H]1C(=O)N1CCC[C@H]1C(=O)N1CCC[C@H]1C(=O)N[C@@H](CO)C(=O)N[C@@H](CCCCN)C(N)=O)C(C)C` [Compound 158], the maximal effect (Emax) in assay [1] (Table 3) is 31 to 38%; in assay [1] (Table 3A), 31 to 38%; in assay [2] (Table 3) it was 104 to 107%; in assay [2] (Table 3A), 104 to 107%. In addition, the EC50 in assay [1] (Table 3, read-out: EC50 GLP-1R/nM) is 10 to 100 nM; in assay [1] (Table 3A, read-out: EC50 GLP-1R/nM), 10 to 100 nM; in assay [2] (Table 3, read-out: EC50 GIP-R/nM) it was 0.1 to 1 nM; in assay [2] (Table 3A, read-out: EC50 GIP-R/nM) it was 0.1 to 1 nM; in assay [3] (PathHunter β-arrestin assay, read-out: β-arrestin activity EC50), > 1000 nM.
